One data set concerns the target T1, UvrA2 (Geobacillus stearothermophilus, UniProt A0ACH1EC70).
T1 construct: gene uvrA; pET28a-NHis-UvrA, N-terminal His tag, expressed in E. coli Rosetta (DE3) pLysS; heat-treated to remove ADP; homodimer with proximal and distal ATPase sites per monomer
The experiment in a line: global fit of pre-steady state Pi release (MDCC-PBP stopped-flow), KinTek Explorer. The class given is biochemical. The conditions noted are these: no DNA; pH 7.4, 5 mM MgCl2, 40°C; distal (high-affinity) sites; best-fit model value; proximal sites are a weaker second site. The source says: global fit of pre-steady state Pi release (MDCC-PBP stopped-flow), KinTek Explorer on UvrA2

For data set [1], the target named is T2, T. maritima UvrA Δ117-399 (Thermotoga maritima, UniProt Q9WYV0, DEL117-399).
T2 construct: internal deletion of 117-399; preparation in Supplementary Data
The experiment in a line: X-ray crystal structure, […] Å. In kind it is binding. The conditions noted are these: ADP in proximal and distal sites.

Data set [2] deals with UvrA2 (UvrA dimer, wild type) (Geobacillus stearothermophilus, UniProt A0ACH1EC70 1-952). In words: fluorescence anisotropy; 0-250 nM UvrA2, 7.5 nM DNA; Equilibrium fluorescence anisotropy, 7.5 nM DNA, 0-250 nM UvrA2; anisotropy buffer and temperature not in the material (other assays of the paper: 20 mM Tris-HCl pH 7.4, 0.15 M NaCl, 5% glycerol, 5 mM MgCl2, 5 mM DTT, 40 C). The conditions noted are these: protein: recombinant, tags: N-terminal His (pET28a-NHis-UvrA), chain copies: 2, blunt.

T2 sequence (Q9WYV0 other isoform, or with tags, fused parts or gaps DEL117-399): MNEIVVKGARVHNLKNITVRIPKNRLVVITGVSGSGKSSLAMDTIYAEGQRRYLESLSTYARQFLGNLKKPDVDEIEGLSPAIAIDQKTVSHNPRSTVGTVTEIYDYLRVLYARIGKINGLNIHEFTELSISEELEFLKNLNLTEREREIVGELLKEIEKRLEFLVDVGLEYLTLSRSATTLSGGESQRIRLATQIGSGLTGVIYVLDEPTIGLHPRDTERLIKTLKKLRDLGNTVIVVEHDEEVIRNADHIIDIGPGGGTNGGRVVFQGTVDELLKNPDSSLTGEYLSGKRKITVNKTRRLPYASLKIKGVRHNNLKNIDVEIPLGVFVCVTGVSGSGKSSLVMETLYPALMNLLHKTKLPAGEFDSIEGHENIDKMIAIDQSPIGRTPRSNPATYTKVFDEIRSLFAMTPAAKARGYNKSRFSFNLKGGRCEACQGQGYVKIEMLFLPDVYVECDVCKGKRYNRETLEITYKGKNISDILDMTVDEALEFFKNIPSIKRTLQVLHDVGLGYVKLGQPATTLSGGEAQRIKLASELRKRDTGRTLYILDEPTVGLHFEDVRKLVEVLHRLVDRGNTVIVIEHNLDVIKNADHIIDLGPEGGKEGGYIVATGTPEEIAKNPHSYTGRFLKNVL

With `Nc1ncnc2c1ncn2[C@@H]1O[C@H](COP(=O)(O)OP(=O)(O)OP(=O)(O)O)[C@@H](O)[C@H]1O` [ATP], at UvrA2, the Best-fit values was 1 µM.
For `Nc1ncnc2c1ncn2[C@@H]1O[C@H](COP(=O)(O)OP(=O)(O)O)[C@@H](O)[C@H]1O` [ADP], in data set [1], the “X-ray crystal structure, 2.0 Å” value is “the fully ADP-bound structure reported here further supports this hypothesis”.

B1: fluorescein lesion DNA, 50 bp duplex (dsDNA)
DNA 1: CCTGTCAGCTCGTTCTGAGTTCCAGTAGTAATGTGGCCGTAAGTAATCCA
DNA 2: TGGATTACTTACGGCCACATTACTACTGGAACTCAGAACGAGCTGACAGG
modifications: internal fluorescein-dT (iFluorT) at position 26 of strand 1, acts as lesion
Turning to B1, the Kd in data set [2] (label: internal fluorescein (strand 1, T26)) was 12 ± 2 nM.

B2: native (undamaged) DNA, 50 bp duplex (dsDNA)
DNA 1: B1 DNA 2
DNA 2: B1 DNA 1
As for B2, in data set [2] (label: 5' 6-FAM on strand 1 (template)), the Kd was 45 ± 7 nM.

These data come from PMC6486640, “The ATPase mechanism of UvrA2 reveals the distinct roles of proximal and distal ATPase sites in nucleotide excision repair” (Nucleic Acids Research, 2019).
